≈ marks a conversion by molar mass, not a printed value. Where two headings read alike, the source gives them in different places.
Experiments:
[1] = tested on: N. gonorrhoeae ATCC49226/MMX 683; assay: Agar dilution MIC assay (Example 1); assay type: cell-based, Neisseria gonorrhoeae
Procedure: Neisseria gonococcus (N. gonorrhoeae) were assayed using a reference agar dilution method, see reference (2). Drug dilutions and drug-supplemented agar plates were prepared manually. Neisseria gonococcus was grown on Chocolate agar in a CO2 incubator overnight at 35° C. prior to assay. […] The MIC was read per CLSI guidelines, see reference (3).

Pseudomonas aeruginosa = assay: Broth microdilution MIC testing; assay type: cell-based; conditions: Pseudomonas aeruginosa MMX 103/ATCC 27853, susceptible, QC
Procedure: (§1) Broth microdilution assay: Mueller Hinton II broth (MHB II, BBL, BD, catalog no. 212322; lot no. 5257869) was used for testing most aerobes.
(§2) MIC values were determined using a broth microdilution procedure described by CLSI, see reference (1). Automated liquid handlers (Multidrop 384, Labsystems, Helsinki, Finland; Biomek 2000 and Biomek FX, Beckman Coulter, Fullerton Calif.) were used to conduct serial dilutions and liquid transfers.
(§3) The wells in Columns 2 through 12 of two standard 96-well microdilution plates (Costar 3795, Corning Inc., Corning, N.Y.) were filled with 150 μL of diluent specific to the compound tested. Three hundred microliters of each comparator and investigational drug solution (40× or 100×) was added to one well in Column 1 of the plates. The Biomek 2000 was used to complete the serial transfers through Column 11. The wells of Column 12 contained no drug and were the organism growth control wells. These panels were the “mother plates.”
(§4) Because drugs were prepared at either 40× or 100×, the “daughter plates” were loaded with 185-188 μL of the appropriate test media for the tested organism, using the Multidrop 384 or by hand. The daughter plates were prepared on the Biomek FX instrument, which transferred 2-5 μL of drug solution from each well of a mother plate to the corresponding well of each daughter plate in a single step. The wells of the daughter plates ultimately contained 185-188 μL of broth appropriate to the organism, 2-5 μL of drug solution, and 10 μL of bacterial inoculum prepared in broth.
(§5) Standardized inoculum of each organism was prepared per CLSI methods, see reference (1). The inoculum for each organism was dispensed into sterile reservoirs divided by length (Beckman Coulter), and the Biomek 2000 was used to inoculate the plates. Daughter plates were placed on the Biomek 2000 work surface in reverse orientation so that inoculation took place from low to high drug concentration. The Biomek 2000 delivered 10 μL of standardized inoculum into each well. This yielded a final cell density in the daughter plates of approximately 5×10^5 CFU/mL.
(§6) Plates were stacked 3 high, covered with a lid on the top plate, placed in plastic bags, and incubated at 35° C. for approximately 18 to 20 hr. Following incubation, the microplates were removed from the incubator and viewed from the bottom using a plate viewer. […] The MIC was read and recorded as the lowest concentration of drug that inhibited visible growth of the organism.

Acinetobacter baumannii = assay: Broth microdilution MIC testing; assay type: cell-based; conditions: Acinetobacter baumannii MMX 1630/ATCC 19606, susceptible
Procedure: as §1, §2, §3, §4, §5, §6

Escherichia coli = assay: Broth microdilution MIC testing; assay type: cell-based; conditions: for MIC: Escherichia coli, read-out: Minimal Inhibitory Concentration
Procedure: as §1, §2, §3, §4, §5, §6

Enterobacter cloacae = assay: Broth microdilution MIC testing; assay type: cell-based; conditions: Enterobacter cloacae MMX 6089, susceptible
Procedure: as §1, §2, §3, §4, §5, §6

[2] = tested on: Stenotrophomonas maltophila; assay: Broth microdilution MIC testing; assay type: cell-based; conditions: Stenotrophomonas maltophila MMX 4746, susceptible
Procedure: as §1, §2, §3, §4, §5, §6

Klebsiella pneumoniae = assay: Broth microdilution MIC testing; assay type: cell-based; conditions: Klebsiella pneumoniae MMX 214/ATCC 13883, susceptible
Procedure: as §1, §2, §3, §4, §5, §6

cats = conditions: p.o.; cited from earlier work

SMILES: O=C(Nc1ccc([N+](=O)[O-])cc1Cl)c1cc(Cl)ccc1O [Niclosamide, 2′,5-dichloro-4′-nitrosalicylanilide]
- MIC ([1]; ATCC49226, Neisseria gonorrhoeae MMX 683/ATCC 49226, QC, read-out: Minimal Inhibitory Concentration): 0.12 µg/mL (≈ 0.367 µM)
- Minimal Inhibitory Concentration ([1]; Neisseria gonorrhoeae MMX 683/ATCC 49226, QC): 0.12 µg/mL
- in vitro activity (in words) ([1]; against N. gonococcus (N. gonorrhoeae), Example 1 conclusion): good in vitro activity
- MIC (Pseudomonas aeruginosa; ATCC27853, read-out: Minimal Inhibitory Concentration): > 8 µg/mL
- Minimal Inhibitory Concentration (Pseudomonas aeruginosa): > 8 µg/mL
- MIC (Acinetobacter baumannii; ATCC19606, read-out: Minimal Inhibitory Concentration): > 8 µg/mL
- Minimal Inhibitory Concentration (Acinetobacter baumannii): > 8 µg/mL
- Minimal Inhibitory Concentration (Escherichia coli; Escherichia coli MMX 102/ATCC 25922, QC strain): > 8 µg/mL
- Minimal Inhibitory Concentration (Escherichia coli; Escherichia coli MMX 120, acrAB efflux pump knockout): > 8 µg/mL
- MIC (Escherichia coli; ATCC25922): > 8 µg/mL
- MIC (Escherichia coli): > 8 µg/mL
- Minimal Inhibitory Concentration (Enterobacter cloacae): > 8 µg/mL
- MIC (Enterobacter cloacae; read-out: Minimal Inhibitory Concentration): > 8 µg/mL
- Minimal Inhibitory Concentration [2]: > 8 µg/mL
- MIC ([2]; Stenotrophomonas sp. LMG 10879, read-out: Minimal Inhibitory Concentration): > 8 µg/mL
- MIC (Klebsiella pneumoniae; ATCC13883, read-out: Minimal Inhibitory Concentration): > 8 µg/mL
- Minimal Inhibitory Concentration (Klebsiella pneumoniae): > 8 µg/mL
- LD50 (cats): > 1000 mg/kg

— patent US20210137948A1, “TREATMENT OF INFECTIONS CAUSED BY NEISSERIA GONOCOCCUS USING A HALOGENATED SALICYLANILIDE” (priority 2018, published 2021)
